Experimental findings from patent US7256024B2, “Tyrissamycin antibiotic” (Bristol-Myers Squibb Company, priority 1998, dated 2007) are described below.

One data set concerns Enterococcus faecium. Put plainly: MIC, microtiter dilution technique. It is filed as cell-based. The settings on record: Mueller-Hinton broth, 37° C., 16-24 hours. As to the method:
(§1) Tyrissamycin was evaluated in vitro to detemine the minimal inhibitory concentrations (MIC) against seven gram-positive bacteria using the microtiter dilution technique. This method is described by T. B. Conrath, “Handbook of Microtiter Procedures,” Dynatech Corp., Cambridge, Mass., USA (1972); and T. L. Gavan et al “Microdilution Test Procedures,” in Manual of Clinical Microbiology, E. H. Lennette, Ed., American Soc. for Microbiol., Washington, D.C., USA (1980). These tests are performed in accordance with procedures established by the National Committee on Clinical Laboratory Standards (NCCLS). The test procedure is as follows: Each well of a sterile 96-well microdilution tray is filled under aseptic conditions with 0.1 ml of Mueller-Hinton broth. A 0.05-ml sample of the test compound solution is added to a well in the first row of the tray. A microdilutor apparatus is used to simultaneously mix the contents of these wells and to transfer aliquots to each succeeding row of cells to obtain a range of serially diluted solutions. The last row of wells is untreated and serves as a control. Each well containing broth and test compound is inoculated with about ten microliters of inoculum of a given test microorganism. One well in the last row of wells (which is free of test compound) is not inoculated and is used as a sterility control. The trays are sealed and incubated at 37° C. for 16-24 hours.

For the next data set, the system named is Streptococcus pneumoniae. Put plainly: MIC, microtiter dilution technique. Format: cell-based. The following applies: Mueller-Hinton broth, 37° C., 16-24 hours. As to the method: as §1
Another data set relates to Staphylococcus aureus. Put plainly: MIC, microtiter dilution technique. It is filed as cell-based. The settings on record: Mueller-Hinton broth, 37° C., 16-24 hours. The method, then: as §1
Data set [1] has as its system Staphylococcus haemolyticus. Put plainly: MIC, microtiter dilution technique. The following applies: Mueller-Hinton broth, 37° C., 16-24 hours. Format: cell-based. The method, then: as §1
In a further data set the test system is Streptococcus pyogenes. Put plainly: MIC, microtiter dilution technique. It is filed as cell-based. The settings on record: Mueller-Hinton broth, 37° C., 16-24 hours. As to the method: as §1
For data set [2], the system named is Staphylococcus epidermidis. Put plainly: MIC, microtiter dilution technique. It is filed as cell-based. The following applies: Mueller-Hinton broth, 37° C., 16-24 hours. As to the method:
as §1

The subject of another data set is Enterococcus faecalis. Put plainly: MIC, microtiter dilution technique. It is filed as cell-based. The settings on record: Mueller-Hinton broth, 37° C., 16-24 hours. The method, then: as §1
For data set [3], the system named is Staphylococcus aureus strain SA1. Put plainly: Well-agar diffusion biological assay. Format: cell-based. The settings on record: sample 5 mg/ml; S. aureus SA1; 7 mm agar wells; fractions of final purification. The method, then:
Assays for detection and evaluation of the antibacterial activity of tyrissamycin employ various strains of Staphylococcus aureus. The primary biological assay system consists of S. aureus strain SA1.
SA1 is grown at 37° C. overnight in Antibiotic Assay Broth (BBL, Cockeysville, Md.). The culture is centrifuged at 4000 rpm for 10 minutes and the medium is decanted. Cells are resuspended in 0.9% saline. The culture is adjusted to 25% transmission (600 nm wavelength) using a Coleman Junior Spectrophotometer. This 25% working cell suspension is stored at 4° C. for use as the assay inoculum.
All biological assays employ agar diffusion techniques. Assay agar is Seed Agar (BBL) supplemented after autoclaving with 4% of phosphate-nitrate buffer, pH 7.0, and 0.3% of a 2% solution of triphenyltetrazolium chloride. For well-agar diffusion assays, assay agar is seeded with 1% of the working cell suspension of SA1. The seeded agar is poured into Petri dishes or bioassay trays and allowed to harden. Wells (7 mm diameter) are cut in the agar, and 40 μl sample aliquots are added to the wells. (For some assays, 3 μl of sample are spotted directly on the surface of the agar). Plates are incubated at 37° C. for 18-24 hours, and zones of inhibition (if any) are measured. Inhibition zone sizes correlated with the activity of tyrissamycin in various samples.

Another data set can be described thus: Solubility. It is filed as physicochemical. From the text: A purified sample of tyrissamycin was isolated as a white amorphous powder. […] FIG. 3 (CD3OD) • ^13C-NMR: See FIG. 4 (CD3OD)

On to tyrissamycin, for which the “Minimal Inhibitory Concentration” value with Enterococcus faecium was found to be 64 µg/mL; in the data set on Streptococcus pneumoniae it was 4 µg/mL; in the data set with Staphylococcus aureus it was 32 µg/mL; in data set [1], 32 µg/mL; with Streptococcus pyogenes, 4 µg/mL; in [2] it was 32 µg/mL. Besides, the “Minimal Inhibitory Concentration” value in the data set with Enterococcus faecalis stood at 32 µg/mL. The “Inhibition Zone” value in [3] was determined as 14.0 mm. Further, the Solubility result in the data set “Solubility” (in chloroform) is “Soluble”; in the data set “Solubility” (in dimethylsulfoxide (DMSO)) it was “Soluble”; in “Solubility” (in methanol), “Soluble”; in “Solubility” (in water), “practically insoluble”.
